From publication PMC8222254, “Self-assembly of an anion receptor with metal-dependent kinase inhibition and potent in vitro anti-cancer properties” (Nature Communications, 2021)
Where “and” joins values, the source holds several entries; their conditions need not be identical. Equal values may be shown once. Read-outs that look alike come from different tables or passages of the source.

Assays:
Assay type in all cases: cell-based, human
[1] = tested on: ARPE-19 non-cancer cells; test: Chemosensitivity, 96 h continuous exposure, MTT assay
Summary of the method: (§1)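 Growth inhibition is measured by MTT after cells are dosed for 96 h without washout. The 50% growth-reduction concentration is then interpolated from the curves.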

[2] = tested on: ARPE-19; test: Quantification of cellular ATP levels (CellTiterGlo); conditions: for ATP levels relative to vehicle control: ARPE19, 100μM, 20h; for % ATP Activity (Average): ARPE-19 cells, average of runs, relative to 0 µM = 100
Description: ARPE-19 and HCT116 p53^+/+ cells were seeded in 96-well opaque plates at a density of 7500 cells/well. 24 h after seeding, cells were treated for 20 h with a range of concentrations of [[…]]^6+, [L2Zn3]^6+, [[…]]^6+, or vehicle control (2-fold serial dilution from 100-3.125 μM) before determining total cellular ATP content by quantification of luminescence (CellTiterGlo® assay, Promega). ATP levels were normalised relative to levels in vehicle control-treated cells.

[3] = tested on: HCT116 p53-/-; test: Confocal imaging of autophagic cells (CYTO-ID); conditions: 3.125 µM, 40 h
Description: Cells were seeded in Lumox chamber slides (8-well, Sarstedt) at a density of 1.25 × 10^4 cells/well (ARPE-19) or 5.625 × 10^4 cells/well (HCT116 p53^−/− and HCT116 p53^+/+). 24 h after seeding, cells were treated with 3.125 μM of [L2Cu3]^6+, [L2Zn3]^6+, [L2Mn3]^6+, or vehicle control for 40 h before removal and addition of CYTO-ID Green autophagic dye (1:500 dilution, Enzo Life Sciences) and Hoechst 3342 nuclear counter stain for 30 min at 37 °C. Media was then replaced before imaging using a Zeiss LSM880 confocal laser scanning microscope.

[4] = tested on: MCF10A non-cancer cells; test: Chemosensitivity, 96 h continuous exposure, MTT assay
Summary of the method: as §1

[5] = tested on: H460; test: as above;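 for SI (NPI): adult human brain neural progenitor non-cancer cells from an epilepsy surgery patient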;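 for Selectivity Index using the NPI non-cancer cell line: adult human brain neural progenitor non-cancer cells from an epilepsy surgery patient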
Summary of the method: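 H460 lung and PSN1 pancreatic carcinoma lines, grown in RPMI-1640 with 10% FBS, were plated at 2 × 10^3 cells/well, dosed across a concentration range for 96 h, then given MTT for 4 h. Formazan absorbance at 540 nm gave IC50 values.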

[6] = tested on: MiaPaCa2; test: as above;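 for SI (NPI): adult human brain neural progenitor non-cancer cells from an epilepsy surgery patient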;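 for Selectivity Index using the NPI non-cancer cell line: adult human brain neural progenitor non-cancer cells from an epilepsy surgery patient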
Summary of the method: as §1

[7] = ARPE-19, 96 h, MTT, individual run, read-out: IC50 values for each replicate
[8] = ARPE-19, 96 h, MTT, mean of at least 3 independent experiments, read-out: Mean IC50
[9] = ARPE-19 non-cancer, read-out: Mean IC50 values

## [Mn+2].[Mn+2].[Mn+2].c1ccc(-c2csc(NCCN(CCNc3nc(-c4ccccn4)cs3)CCNc3nc(-c4ccccn4)cs3)n2)nc1.c1ccc(-c2csc(NCCN(CCNc3nc(-c4ccccn4)cs3)CCNc3nc(-c4ccccn4)cs3)n2)nc1 [[L2Mn3]6+]
[1]; [7]
  IC50: 5.14 µM and 2.1 µM and 2.12 µM and 2.08 µM
[1]; [8]
  IC50: 2.86 µM
[1]; [9]
  IC50: 2.86 µM
[2]
  ATP levels relative to vehicle control: ~ 40%
[2]; 3.125 µM complex
  % ATP Activity (Average): 82.98%
[2]; 6.25 µM complex
  % ATP Activity (Average): 75.81%
[2]; 12.5 µM complex
  % ATP Activity (Average): 71.57%
[2]; 25 µM complex
  % ATP Activity (Average): 63.68%
[2]; 50 µM complex
  % ATP Activity (Average): 53.48%
[2]; 100 µM complex
  % ATP Activity (Average): 40.46%
[3]
  induction of vacuoles / autophagy (CYTO-ID): most pronounced
[3]; listed as Mn^2+ complex
  induction of vacuoles / autophagy (CYTO-ID): also induced autophagy

## CC(=O)[O-].CC(=O)[O-].CC(=O)[O-].CC(=O)[O-].CC(=O)[O-].CC(=O)[O-].[Zn+2].[Zn+2].[Zn+2].c1ccc(-c2csc(NCCN(CCNc3nc(-c4ccccn4)cs3)CCNc3nc(-c4ccccn4)cs3)n2)nc1.c1ccc(-c2csc(NCCN(CCNc3nc(-c4ccccn4)cs3)CCNc3nc(-c4ccccn4)cs3)n2)nc1 [[L2Zn3]6+]
[1]; [7]
  IC50: 154 µM and 160 µM and 144 µM and 171 µM
[1]; [8]
  IC50: 157 µM
[1]; ARPE-19, mean of replicates, read-out: Mean IC50
  IC50: 157 µM
[1]; [9]
  IC50: 157 µM
[1]; ratio of IC50, ARPE-19
  Relative potency (+ anion to no anion), Ratio + anion:no anion: 1
[4]; MCF10A non-cancer, read-out: Mean IC50 values
  IC50: 162 µM
[4]; MCF10A, 96 h, MTT, individual run, read-out: IC50 values for each replicate
  IC50: 169 µM and 176 µM and 140 µM
[4]; MCF10A, 96 h, MTT, mean of at least 3 independent experiments, read-out: Mean IC50
  IC50: 162 µM
[4]; MCF10A, mean of replicates, read-out: Mean IC50
  IC50: 162 µM
[4]; ratio of IC50, MCF10A
  Relative potency (+ anion to no anion), Ratio + anion:no anion: 1
[5]; H460, 96 h, MTT, individual run, read-out: IC50 values for each replicate
  IC50: 0.186 µM and 0.273 µM and 0.557 µM and 0.236 µM and 0.441 µM and 0.594 µM and 0.235 µM
[5]; H460, 96 h, MTT, mean of at least 3 independent experiments, read-out: Mean IC50
  IC50: 0.36 µM
[5]; H460, mean of replicates, read-out: Mean IC50
  IC50: 0.36 µM
[5]; H460, read-out: Mean IC50 values
  IC50: 0.36 µM
[5]; IC50 ARPE-19 / IC50 H460
  Selectivity index (ARPE19): 436.81
[5]; IC50 MCF10A / IC50 H460
  Selectivity index (MCF10A): 449.00
[5]; IC50 NP1 / IC50 H460
  Selectivity Index using the NPI non-cancer cell line: 21.61
[5]; mean IC50 ARPE-19 / mean IC50 H460
  SI (ARPE19): 436.81
[5]; mean IC50 MCF10A / mean IC50 H460
  SI (MCF10A): 449.00
[5]; mean IC50 NP1 / mean IC50 H460
  SI (NPI): 21.61
[5]; ratio of IC50, H460
  Relative potency (+ anion to no anion), Ratio + anion:no anion: 1
[5]; ratio of SI (ARPE-19), H460
  Selectivity indices relative to ARPE-19, Ratio + anion:no anion: 1
[5]; ratio of SI (MCF 10A), H460
  Selectivity indices relative to MCF10A, Ratio + anion:no anion: 1
[6]; IC50 ARPE-19 / IC50 MiaPaCa2
  Selectivity index (ARPE19): 2.66
[6]; IC50 MCF10A / IC50 MiaPaCa2
  Selectivity index (MCF10A): 2.74
[6]; IC50 NP1 / IC50 MiaPaCa2
  Selectivity Index using the NPI non-cancer cell line: 0.13
[6]; MiaPaCa2, 96 h, MTT, individual run, read-out: IC50 values for each replicate
  IC50: 11.9 µM and 15 µM and 16.3 µM
[6]; MiaPaCa2, mean of replicates, read-out: Mean IC50
  IC50: 59.1 µM
[6]; MiaPaCa2, read-out: Mean IC50 values
  IC50: 59.1 µM
[6]; MiaPaCa2, single replicate, read-out: IC50 values for each replicate
  IC50: 52.7 µM and 64.8 µM and 64.5 µM and 54.3 µM
[6]; mean IC50 ARPE-19 / mean IC50 MiaPaCa2
  SI (ARPE19): 10.90
[6]; mean IC50 MCF10A / mean IC50 MiaPaCa2
  SI (MCF10A): 11.21
[6]; mean IC50 NP1 / mean IC50 MiaPaCa2
  SI (NPI): 0.54
[6]; ratio of IC50, MiaPaCa2
  Relative potency (+ anion to no anion), Ratio + anion:no anion: 1
[6]; ratio of SI (ARPE-19), MiaPaCa2
  Selectivity indices relative to ARPE-19, Ratio + anion:no anion: 1
[6]; ratio of SI (MCF 10A), MiaPaCa2
  Selectivity indices relative to MCF10A, Ratio + anion:no anion: 1
[2]
  ATP levels relative to vehicle control: > 70%
[2]; 3.125 µM complex
  % ATP Activity (Average): 91.98%
[2]; 6.25 µM complex
  % ATP Activity (Average): 88.71%
[2]; 12.5 µM complex
  % ATP Activity (Average): 84.92%
[2]; 25 µM complex
  % ATP Activity (Average): 79.86%
[2]; 50 µM complex
  % ATP Activity (Average): 79.43%
[2]; 100 µM complex
  % ATP Activity (Average): 73.40%
[3]
  induction of vacuoles / autophagy (CYTO-ID): induced the appearance of vacuoles
